US11872221B2, “Treating untreated or treatment-resistant diabetes with glucokinase activator” (HUA Medicine (Shanghai) Ltd., priority 2020, dated 2024)
Like-named read-outs stand apart in the source and are kept apart here.

Assays:
Format in all cases: in vivo, human
[1] = Phase 1 drug-drug interaction study, plasma pharmacokinetics of dorzagliatin and sitagliptin; conditions: for AUC(0-t) / Cmax: human, plasma, oral, T2DM subjects
Description: (§1) This phase I study accessed the pharmacokinetic interaction between dorzagliatin and sitagliptin in T2DM subjects. This study also evaluated the safety and tolerability of dorzagliatin with simultaneous administration of sitagliptin in T2DM subjects. Moreover, this study accessed the pharmacodynamic responses of glucose, GLP-1, glucagon, insulin, and C-peptide following dorzagliatin, sitagliptin, or simultaneous administration of dorzagliatin and sitagliptin in T2DM subjects.
(§2) Study drugs are each taken 60 (±5) min prior to meals.
Blood samples for the determination of dorzagliatin and sitagliptin concentrations and corresponding pharmacokinetic (PK) analysis were collected on Days 5, 10 and 15: pre-dose (within 30 min prior to dosing), and 0.25, 0.5, 1, 1.5, 2, 3, 4, 6, 8, 10, 12, 18, and 24 h post dose.
Dorzagliatin was provided as a film-coated tablets in 75 mg strength for oral administration 60 min prior to a meal. Sitagliptin was provided as JANUVIA® 100 mg tablets for oral administration 60 min prior to a meal. The total duration of participation in the study for each subject was about 59 days (up to 28-day screening period, 12-day run-in period, and 19-day in-clinic period).
The plasma concentration-time data for dorzagliatin and sitagliptin were analyzed using noncompartmental methods to calculate pharmacokinetic parameters.

glucose = experiment: Oral glucose tolerance test, glucose response (serum); conditions: for Glucose AUEC0-4h, Mean (SD) / Glucose CEav, Mean (SD) / Glucose CEmax, Mean (SD): baseline corrected, OGTT 75 g glucose 30 min after dose, T2DM subjects, sitagliptin 100 mg QD, dorzagliatin 75 mg BID; for Glucose AUEC0-4h, GMR (%) / Glucose CEav, GMR (%) / Glucose CEmax, GMR (%): printed in the monotherapy column, apparently combination vs that monotherapy
Description: as §1, §2
(§3) Subjects consumed a 75-gram glucose solution 30 min following study drug dose administration on Days 5, 10 and 15 in lieu of breakfast. Pharmacodynamic (PD) responses were evaluated by measuring GLP-1 and glucagon levels in plasma, and glucose, insulin, and C-peptide in serum within 60 min prior to oral glucose intake and 0.5, 1, 1.5, 2, 2.5, 3 and 4 h after oral glucose intake.

insulin = experiment: Oral glucose tolerance test, insulin response (serum); conditions: printed in the monotherapy column; apparently combination vs that monotherapy
Description: as §1, §2, §3

C-peptide = experiment: Oral glucose tolerance test, C-peptide response (serum); conditions: for C-peptide CEmax, Mean (SD): baseline corrected, OGTT 75 g glucose 30 min after dose, T2DM subjects, sitagliptin 100 mg QD, dorzagliatin 75 mg BID; for C-peptide AUEC0-4h, GMR (%) / C-peptide CEav, GMR (%) / C-peptide CEmax, GMR (%): printed in the monotherapy column, apparently combination vs that monotherapy
Description: as §1, §2, §3

Row | Compound | Glucose AUEC0-4h, Mean (SD) (glucose) | Glucose CEav, Mean (SD) (glucose) | Glucose CEmax, Mean (SD) (glucose) | Glucose AUEC0-4h, GMR (%) (glucose) | Glucose CEav, GMR (%) (glucose) | Glucose CEmax, GMR (%) (glucose) | Insulin AUEC0-4h, GMR (%) (insulin) | Insulin CEav, GMR (%) (insulin) | Insulin CEmax, GMR (%) (insulin) | C-peptide CEmax, Mean (SD) (C-peptide) | C-peptide AUEC0-4h, GMR (%) (C-peptide) | C-peptide CEav, GMR (%) (C-peptide) | C-peptide CEmax, GMR (%) (C-peptide) | further results
1 | N[C@@H](CC(=O)N1CCn2c(nnc2C(F)(F)F)C1)Cc1cc(F)c(F)cc1F [Sitagliptin, (R)-3-amino-1-(3-(trifluoromethyl)-5,6-dihydro-[1,2,4]triazolo[4,3-a]pyrazin-7(8H)-yl)-4-(2,4,5-trifluorophenyl)butan-1-one] | 378 (88) h · mg/dL | 94.5 (22) mg/dL | 165 (35) mg/dL | 65% | 65% | 87% | 110% | 110% | 125% | 5.1 ng/mL | 119% | 119% | 125% | AUC(0-t) ([1]; sitagliptin 100 mg QD alone (Day 5), read-out: Least squares geometric mean AUC0-24h of plasma sitagliptin): 2940 ng·h/mL; Cmax ([1]; sitagliptin 100 mg QD alone (Day 5), read-out: Least squares geometric mean Cmax of plasma sitagliptin): 410 ng/mL; AUC(0-t) ([1]; sitagliptin 100 mg QD in combination with dorzagliatin 75 mg BID (Day 10), read-out: Least squares geometric mean AUC0-24h of plasma sitagliptin): 2720 ng·h/mL; Cmax ([1]; sitagliptin 100 mg QD in combination with dorzagliatin 75 mg BID (Day 10), read-out: Least squares geometric mean Cmax of plasma sitagliptin): 403 ng/mL; Percent GMR of sitagliptin Cmax ([1]; sitagliptin in combination with dorzagliatin vs sitagliptin alone, 90% CI: 84, 115): 98%; Percent GMR of sitagliptin AUC0-24h ([1]; sitagliptin in combination with dorzagliatin vs sitagliptin alone, 90% CI: 86, 100): 93%
2 | CC(C)C[C@@H](C(=O)Nc1ccn(C[C@@H](O)CO)n1)N1CC(Oc2ccccc2Cl)=CC1=O [Dorzagliatin, (S)-2-(4-(2-chlorophenoxy)-2-oxo-2,5-dihydro-1H-pyrrol-1-yl)-N-(1-((R)-2,3-dihydroxypropyl)-1H-pyrazol-3-yl)-4-methylpentanamide] | 339 (124) h · mg/dL | 84.8 (31) mg/dL | 163 (39) mg/dL | 69% | 69% | 83% | 159% | 159% | 146% | 4.2 ng/mL | 143% | 143% | 145% | Percent ratio of geometric means (GMR) of dorzagliatin Cmax ([1]; dorzagliatin in combination with sitagliptin vs dorzagliatin alone, 90% CI: 87, 120): 102%; Percent GMR of dorzagliatin AUC0-24h ([1]; dorzagliatin in combination with sitagliptin vs dorzagliatin alone, 90% CI: 96, 105): 100%; AUC(0-t) ([1]; dorzagliatin 75 mg BID alone (Day 15), read-out: Least squares geometric mean AUC0-24h of plasma dorzagliatin): 6570 ng·h/mL; Cmax ([1]; dorzagliatin 75 mg BID alone (Day 15), read-out: Least squares geometric mean Cmax of plasma dorzagliatin): 814 ng/mL; AUC(0-t) ([1]; dorzagliatin 75 mg BID in combination with sitagliptin 100 mg QD (Day 10), read-out: Least squares geometric mean AUC0-24h of plasma dorzagliatin): 6590 ng·h/mL; Cmax ([1]; dorzagliatin 75 mg BID in combination with sitagliptin 100 mg QD (Day 10), read-out: Least squares geometric mean Cmax of plasma dorzagliatin): 833 ng/mL
